Tests used:
UO-31 = assay: panel of 60 human tumor cell lines, growth inhibition (Renal Cancer); details: Homo sapiens; for GI50: UO-31; for CC50: UO-31, read-out: LC50; for IC (TGI): UO-31, read-out: TGI
SF-268 = assay: panel of 60 human tumor cell lines, growth inhibition (CNS Cancer); details: Homo sapiens; for GI50: SF-268; for CC50: SF-268, read-out: LC50; for IC (TGI): SF-268, read-out: TGI
786-0 = assay: panel of 60 human tumor cell lines, growth inhibition (Renal Cancer); details: Homo sapiens; for GI50: 786-0; for CC50: 786-0, read-out: LC50; for IC (TGI): 786-0, read-out: TGI
T-47D = assay: panel of 60 human tumor cell lines, growth inhibition (Breast Cancer); details: Homo sapiens, T47D; for CC50: read-out: LC50; for IC (TGI): read-out: TGI
ACHN = assay: panel of 60 human tumor cell lines, growth inhibition (Renal Cancer); details: Homo sapiens; for CC50: read-out: LC50; for IC (TGI): read-out: TGI
IGROV1 = assay: panel of 60 human tumor cell lines, growth inhibition (Ovarian Cancer); details: Homo sapiens; for GI50: IGROV-1; for CC50: IGROV-1, read-out: LC50; for IC (TGI): IGROV-1, read-out: TGI
SF-539 = assay: panel of 60 human tumor cell lines, growth inhibition (CNS Cancer); details: Homo sapiens; for GI50: SF-539; for CC50: SF-539, read-out: LC50; for IC (TGI): SF-539, read-out: TGI
BT-549 = assay: panel of 60 human tumor cell lines, growth inhibition (Breast Cancer); details: Homo sapiens; for GI50: BT-549; for CC50: BT-549, read-out: LC50; for IC (TGI): BT-549, read-out: TGI
NCI-H522 = assay: panel of 60 human tumor cell lines, growth inhibition (Non-Small Cell Lung Cancer); details: Homo sapiens; for GI50: NCI-H522; for CC50: NCI-H522, read-out: LC50; for IC (TGI): NCI-H522, read-out: TGI
NCI/ADR-RES = assay: panel of 60 human tumor cell lines, growth inhibition (Ovarian Cancer); details: Homo sapiens; for CC50: read-out: LC50; for IC (TGI): read-out: TGI
MDA-MB-435 = assay: panel of 60 human tumor cell lines, growth inhibition (Melanoma); details: Homo sapiens; for GI50: MDA-MB-435; for CC50: MDA-MB-435, read-out: LC50; for IC (TGI): MDA-MB-435, read-out: TGI
COLO 205 = assay: panel of 60 human tumor cell lines, growth inhibition (Colon Cancer); details: Homo sapiens; for GI50: COLO 205; for CC50: COLO 205, read-out: LC50
HS 578T = assay: panel of 60 human tumor cell lines, growth inhibition (Breast Cancer); details: Homo sapiens, Hs-578T; for CC50: read-out: LC50; for IC (TGI): read-out: TGI
OVCAR-8 = assay: panel of 60 human tumor cell lines, growth inhibition (Ovarian Cancer); details: Homo sapiens; for GI50: OVCAR-8; for CC50: OVCAR-8, read-out: LC50; for IC (TGI): OVCAR-8, read-out: TGI
OVCAR-5 = assay: as above; details: for GI50 / CC50 / IC (TGI): Homo sapiens; for CC50: OVCAR-5, read-out: LC50; for IC (TGI): OVCAR-5, read-out: TGI
HCT-116 = assay: panel of 60 human tumor cell lines, growth inhibition (Colon Cancer); details: Homo sapiens; for CC50: HCT-116, read-out: LC50; for IC (TGI): HCT-116, read-out: TGI
SW-620 = assay: as above; details: Homo sapiens; for CC50: SW-620, read-out: LC50; for IC (TGI): SW-620, read-out: TGI
K-562 = assay: panel of 60 human tumor cell lines, growth inhibition (Leukemia); details: for GI50 / CC50: Homo sapiens; for GI50: K562; for CC50: K562, read-out: LC50
[1] = K-562, Log10 Concentration −4.0
[2] = K-562, Log10 Concentration −5.0
[3] = K-562, Log10 Concentration −6.0
[4] = K-562, Log10 Concentration −7.0
[5] = K-562, Log10 Concentration −8.0

C=C1C(=O)O[C@H]2[C@H]1CC/C(COC(=O)NCCN1CCCC1)=C\CC[C@@]1(C)O[C@@H]21 [JVM 59, ((1aR,7aS,10aS,10bS,E)-1a-methyl-8-methylene-9-oxo-1a,2,3,6,7,7a,8,9,10a,10b-decahydrooxireno[2′,3′:9,10]cyclodeca[1,2-b]furan-5-yl)methyl-(2-(pyrrolidin-1-yl)ethyl)carbamate]
GI50 (UO-31): 13.4 µM
CC50 (UO-31): 75.3 µM
IC (TGI) (UO-31): 31.8 µM
GI50 (SF-268): 14.7 µM
CC50 (SF-268): 60.8 µM
IC (TGI) (SF-268): 30 µM
GI50 (786-0): 14.4 µM
CC50 (786-0): 60 µM
IC (TGI) (786-0): 29.4 µM
GI50 (T-47D): 4.86 µM
CC50 (T-47D): 63.8 µM
IC (TGI) (T-47D): 19.2 µM
GI50 (ACHN): 3.8 µM
CC50 (ACHN): 39.4 µM
IC (TGI) (ACHN): 14.7 µM
GI50 (IGROV1): 4.09 µM
CC50 (IGROV1): 68.5 µM
IC (TGI) (IGROV1): 16.2 µM
GI50 (SF-539): 15 µM
CC50 (SF-539): 54.1 µM
IC (TGI) (SF-539): 28.5 µM
GI50 (BT-549): 4.75 µM
CC50 (BT-549): 45 µM
IC (TGI) (BT-549): 18.6 µM
GI50 (NCI-H522): 1.78 µM
CC50 (NCI-H522): 32.2 µM
IC (TGI) (NCI-H522): 5.05 µM
GI50 (NCI/ADR-RES): > 100 µM
CC50 (NCI/ADR-RES): > 100 µM
IC (TGI) (NCI/ADR-RES): > 100 µM
GI50 (MDA-MB-435): 6.56 µM
CC50 (MDA-MB-435): 53.4 µM
IC (TGI) (MDA-MB-435): 21.1 µM
GI50 (COLO 205): 4.78 µM
CC50 (COLO 205): 45 µM
IC (TGI) (COLO 205; COLO 205, read-out: TGI): 16.8 µM
GI50 (HS 578T): 19.7 µM
CC50 (HS 578T): > 100 µM
IC (TGI) (HS 578T): 69 µM
GI50 (OVCAR-8): 13.4 µM
CC50 (OVCAR-8): 72.2 µM
IC (TGI) (OVCAR-8): 31.1 µM
GI50 (OVCAR-5; OVCAR-5): 13.5 µM
CC50 (OVCAR-5): 59.3 µM
IC (TGI) (OVCAR-5): 28.3 µM
Percent Growth (OVCAR-5; OVCAR-5, Log10 Concentration −7.0): 9B
GI50 (HCT-116; HCT-116, HCT-116, five dose): 3.18 µM
GI50 (HCT-116; HCT-116, HCT-116, 5-dose assay): 3.18 µM
CC50 (HCT-116): 38.2 µM
IC (TGI) (HCT-116): 12.7 µM
GI50 (SW-620; SW-620, SW-620, five dose): 3.46 µM
GI50 (SW-620; SW-620, SW-620, 5-dose assay): 3.46 µM
CC50 (SW-620): 47.2 µM
IC (TGI) (SW-620): 13.8 µM
GI50 (K-562): 3.26 µM
CC50 (K-562): > 100 µM
TGI (K-562; K-562, five dose): 1.86E−5
Percent Growth (K-562; [1]): −36%
Percent Growth (K-562; [2]): 13%
Percent Growth (K-562; [3]): 89%
Percent Growth (K-562; [4]): 79%
Percent Growth (K-562; [5]): 87%

C=C1C(=O)O[C@H]2[C@H]1CC/C(COC(=O)OC)=C\CC[C@@]1(C)O[C@@H]21 [JVM 2-40]
GI50 (UO-31): 3.21 µM
CC50 (UO-31): 42.1 µM
IC (TGI) (UO-31): 14.2 µM
GI50 (SF-268): 7.36 µM
CC50 (SF-268): 62.8 µM
IC (TGI) (SF-268): 23.6 µM
GI50 (786-0): 3.29 µM
CC50 (786-0): 48.5 µM
IC (TGI) (786-0): 14.4 µM
GI50 (T-47D): 2.7 µM
CC50 (T-47D): 61.3 µM
IC (TGI) (T-47D): 12.5 µM
GI50 (ACHN): 2.4 µM
CC50 (ACHN): 32.2 µM
IC (TGI) (ACHN): 8.17 µM
GI50 (IGROV1): 16.6 µM
CC50 (IGROV1): 85.8 µM
IC (TGI) (IGROV1): 37.7 µM
GI50 (SF-539): 2.56 µM
CC50 (SF-539): 32.7 µM
IC (TGI) (SF-539): 8.79 µM
GI50 (BT-549): 5.74 µM
CC50 (BT-549): 43.5 µM
IC (TGI) (BT-549): 18.7 µM
GI50 (NCI-H522): 1.07 µM
CC50 (NCI-H522): 5.82 µM
IC (TGI) (NCI-H522): 2.5 µM
GI50 (NCI/ADR-RES): 17.2 µM
CC50 (NCI/ADR-RES): > 100 µM
IC (TGI) (NCI/ADR-RES): 49.2 µM
GI50 (MDA-MB-435): 3.63 µM
CC50 (MDA-MB-435): 55.4 µM
IC (TGI) (MDA-MB-435): 16.8 µM
GI50 (COLO 205): 2.25 µM
CC50 (COLO 205): 25 µM
GI50 (HS 578T): 4.72 µM
CC50 (HS 578T): > 100 µM
IC (TGI) (HS 578T): 38.9 µM
GI50 (OVCAR-8): 8.95 µM
CC50 (OVCAR-8): 65.6 µM
IC (TGI) (OVCAR-8): 24.7 µM
GI50 (OVCAR-5; OVCAR-5): 5.31 µM
CC50 (OVCAR-5): 47 µM
IC (TGI) (OVCAR-5): 19.5 µM
GI50 (HCT-116; HCT-116, HCT-116, NCI five dose): 2.24 µM
CC50 (HCT-116): 33.2 µM
IC (TGI) (HCT-116): 11 µM
GI50 (SW-620; SW-620, SW-620, NCI five dose): 2.39 µM
CC50 (SW-620): 47.4 µM
IC (TGI) (SW-620): 11.9 µM
GI50 (K-562): 4.12 µM
CC50 (K-562): > 100 µM
Percent Growth (K-562; [1]): −31%
Percent Growth (K-562; [2]): 21%
Percent Growth (K-562; [3]): 97%
Percent Growth (K-562; [4]): 99%
Percent Growth (K-562; [5]): 101%
TGI (K-562; K-562, NCI five dose): 2.53E−5

Reference: patent US9469650B2, “Melampomagnolide B derivatives” (BOARD OF TRUSTEES OF THE UNIVERSITY OF ARKANSAS, priority 2013, dated 2016)
